The nature of data set [1]: In vitro skin permeation test, Franz-type diffusion cells. As to the method:
The transdermal delivery of GHK and RGD-GHK was measured through the porcine skin. Permeation experiment was carried out for 24 h at 37 °C with Franz-type diffusion cells. Peptides in collected receptor solutions and skin retention were analyzed by HPLC. […] To further test whether the incorporation of a targeting motif could enhance the binding of chimeric peptides in vivo, we used smearing FITC-peptides at the mouse back for 24 h and tracked the peptide location of the skin slices by fluorescent microscopy.

The subject of data set [2] is HaCaT. Put plainly: Cell viability, CCK-8 assay. Particulars: 2 h incubation. A general note: Formazan colour is commonly taken as a measure of viable cells.
Description: Cells (1 × 10^4 cells per well) were seeded in a 96-well plate to reach approximately 80% confluence. Wells filled with DMEM alone served as positive controls (PCs). The culture medium of sample groups was replaced either by 100 μL of H2O2 or naked/FITC-labeled peptide solutions at different concentrations for a certain time of incubation, and non-treatment wells acted as negative controls (NCs). Then, the plate solutions were substituted with 100 μL of 10% CCK-8 solution per well and incubated for another 2 h, followed by an absorbance reading taken at 450 nm. The cell survival was determined according to the following formula: cell viability (%) = (ODsample − ODpc)/(ODnc − ODpc) × 100%.
A further data set relates to HaCaT cells. Description: Release of lactate dehydrogenase after H2O2 damage. The data set is classed as cell-based, human. The note with it: 800 μM H2O2 for 2 h, then fresh medium 18 h, no peptide. As to the method: Lactate dehydrogenase (LDH) activity of the cellular culture was evaluated using an LDH release assay kit (Beyotime). Cells (1 × 10^5 cells per well) were cultured in a 24-well plate for 24 h to reach approximately 80% confluence and then treated either with peptide solution or peptide-free DMEM (positive control, PC). After 4 h incubation, both the peptide solution and peptide-free culture medium were replaced with 250 μL of 800 µM H2O2 and incubated for another 2 h. Then, the cells were incubated with 500 µL of the fresh medium instead of H2O2 for 18 h. Then, 200 µL of the supernatant alone was harvested and mixed with 20 µL of the releasing agent, while the PC medium together with cells was incubated with the equivalent releasing agent. A measure of 200 μL of DMEM alone mixed with 20 µL of the releasing agent was used as a negative control (NC). Then, the solution was incubated at 37°C and 5% CO2 for 1 h and centrifuged at 1,000 rpm for 4 min. A measure of 40 μL suspension per well was pipetted into a 96-well plate and mixed with 20 µL of fresh LDH working solution that was prepared according to the manufacturer’s protocol. The plate was briefly vortexed in the dark for 30 min, and the OD values were measured at 490 nm wavelength. LDH release (%) was expressed via the following equation: LDH (%) = (ODsample − ODnc)/(ODpc − ODnc) × 100%.

The test system of a further data set is HFF-1. Put plainly: Cell viability, CCK-8 assay. Particulars: HFF-1, 2 h incubation.
Data set [3] deals with HaCaT. Put plainly: Cell apoptosis assay (Annexin V-FITC/PI, FCM). The data set is classed as cell-based, human. The note with it: with or without peptide 200 μg/mL 4 h, 800 μM H2O2 2 h, medium 18 h, Figure 4E/G. The method, then:
The percentage of early-stage apoptosis and late-stage apoptosis and necrosis of cells induced by H2O2, with or without peptide addition, were determined using an Annexin V-FITC/PI double-staining assay kit (Beyotime). Cells (1×10^5 cells per well) were seeded in a 24-well plate, pretreated with or without peptide solutions, and incubated for 4 h. The peptide solution or culture medium was replaced with 800 μM of H2O2 solution and was incubated for 2 h at 37°C. Then, the cells were incubated only with the complete medium for another 18 h. Non-treated groups were taken as controls. Suspended medium (200 µL) and trypsin-disassociated cells were collected and centrifuged at 1,000 rpm for 4 min. The precipitate was resuspended in binding buffer (195 µL) plus Annexin V-FITC (5 µL) and incubated for 5 min, followed by 10-min staining of 10 µL propidium iodide (PI). The non-staining sample was used as a reference. After a gentle mix at room temperature and a dark environment, the ratio of cell death was detected via flow cytometry (FCM). […] The free dye was inclined to bind to DNA in the nucleus and emitted strong green fluorescence when DEVD dye was broken down by caspase-3. The fluorescence intensity was measured by FCM, which represented the activity of caspase-3.

For data set [4], the target named is T1, Human neutrophil elastase (Homo sapiens, UniProt P08246).
T1 construct: purchased Yuanye Bio Co. (Shanghai)
T1 sequence (P08246 30-267): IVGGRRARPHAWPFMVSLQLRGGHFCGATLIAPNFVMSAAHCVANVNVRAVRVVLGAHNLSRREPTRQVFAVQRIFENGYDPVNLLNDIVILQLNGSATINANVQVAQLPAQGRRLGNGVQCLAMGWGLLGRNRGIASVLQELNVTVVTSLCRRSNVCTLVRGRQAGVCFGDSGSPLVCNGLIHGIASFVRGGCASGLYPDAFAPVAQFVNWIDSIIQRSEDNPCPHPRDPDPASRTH
Description: Assay of elastase activity (pNA substrate, OD 405 nm). The format is biochemical. Particulars: 2.5 U/mL elastase, 37°C, 2 h time point; for elastase inhibition rate: peptide 200 μg/mL, 5 min preheating. As to the method: N-Methoxysuccinyl-ala-ala-pro-val-p-nitroanilide (CAS: 70967-90-7) was bought from Sigma Chemical Co. (St. Louis, United States). Sivelestat sodium salt hydrate (S7198, CAS: 201677-61-4) was purchased from Meilun Co. (Dalian). Human neutrophil elastase (30 U/mg) was obtained from Yuanye Bio Co. (Shanghai). p-Nitroanilide (pNA, CAS: […]) was bought from Aladdin Co. (Shanghai). All other chemicals were of analytical grade and purchased from Sigma.
The stock solution (0.1 mg/mL pNA) was prepared in 10% DMSO. The standard curve of pNA was made using the different volumes of stock (200, 150, 100, 50, 30, 20, 10, 5, and 1 μL) mixed with 10% DMSO to reach a final volume of 200 μL. The optical density (OD) of each sample was measured at a wavelength of 405 nm.
Substrates were dissolved in 10% DMSO to form a final concentration of 100 μM. A measure of 100 μL of different concentrations (10, 5, 2.5, 1.25, 0.625, and 0.3125 U/mL) of elastase solution in 10% DMSO was preheated at 37°C for 5 min, and 100 μL of substrate solution was added to start the reaction at 37°C. The absorbance at 405 nm was monitored at 5-min intervals up to a recording time of 2 h at 37°C. A measure of 200 μL of 10% DMSO was taken as a blank control.
A measure of 90 μL of 2.5 U/mL elastase solution together with 10 μL of the sample at a certain concentration was preheated at 37°C for 5 min, and then 100 μL of the substrate was added to initiate a 120 min-reaction at 37°C. The OD was read at 405 nm. A measure of 200 μL of 10% DMSO was used as a blank control; 10 μL of Sivelestat solution at 10 mM was prepared as a positive control; and 10 μL of PBS was added as a negative control that represented the maximum enzyme activity. The inhibition rate of elastase was calculated according to the following formula: inhibition (%) = [1 − (ODsample − ODblank)/(ODneg − ODblank)] × 100%.

A further data set relates to mouse red blood cells. The note with it: 2 mg/mL peptide, 5% (v/v) mouse red blood cells in PBS, 37°C, 1 h, OD 540 nm; repeated five times.
Another data set concerns chymotrypsin. Description: Proteolytic stability assay. The format is in vitro ADME. Particulars: peptide 1 mg/mL, chymotrypsin 1 mg/mL, 37°C, 0, 1, 2, 4, 8, 16 h (Figure S3: 0-8 h); remaining peptide by C18 RP-HPLC, 220 nm. The method, then: To evaluate the proteolytic stability of peptides against chymotrypsin, the peptides were dissolved to 1 mg/mL and incubated with chymotrypsin (1 mg/mL) at 37°C for different times (0, 1, 2, 4, 8, and 16 h). Afterward, the remaining peptides in the samples were analyzed by C18 reversed-phase high-performance liquid chromatography (HPLC) and detected at 220 nm. The mobile phase of HPLC was a mixture of acetonitrile and deionized water containing 0.1% trifluoroacetic acid.

Data set [5] relates to COL-1 of mouse embryonic fibroblasts NIH3T3. Description: Immunofluorescence staining of COL-1. The format is cell-based. The note with it: NIH3T3, pretreatment 4 h (RGD-GHK 200 μg/mL), 400 µM H2O2 2 h, fresh medium 20 h. As to the method: (§1) HFF-1 cells (1.5 × 10^5 cells per well) or mouse embryonic fibroblasts (NIH3T3) were grown on sterile cell slides for 24 h till 80% confluence. A measure of 200 μg/mL of RGD-GHK and GHK solutions was prepared with serum-free DMEM, and the cells were treated with the solutions for 4 h. Then, the solutions were replaced with 400 µM H2O2 and incubated for another 2 h. Then, the fresh culture medium was added to the cells and incubated for another 20 h. Pretreatment without peptides was used as a negative control, while treatment with an anti-aging peptide, acetyl hexapeptide-8 (Wrinklend), was taken as a positive control. The slides were washed three times with PBS, followed by fixation in 500 µL of 4% paraformaldehyde for 15 min at room temperature. After washing with PBS another three times, the cells were permeabilized with 0.5% Triton X-100 for 15 min and washed with PBS repeatedly. The cells were blocked using 1% BSA for 1 h to eliminate non-specific binding. Samples were incubated at 4°C overnight with 100 µL of rabbit monoclonal antibody against type I collagen (COL1A1, 1:100 dilution, CST). […] Then, a fluorescent anti-quenching agent was applied to seal off the slips for 5 min, and the slips were observed using an upright fluorescence microscope.

Data set [6] relates to COL-1 of the human fibroblasts HFF-1. Description: Immunofluorescence staining of COL-1. The format is cell-based. Particulars: HFF-1, pretreatment 4 h (RGD-GHK 200 μg/mL), 400 µM H2O2 2 h, fresh medium 20 h. As to the method:
as §1

The mark [7] stands for this setting: porcine skin, Franz-type diffusion cells, 24 h, 37 °C, HPLC.

Where a name gives a salt, the structure may show the parent alone. Read-outs that look alike come from different tables or passages of the source. Where a SMILES comes first, the peptide text is derived from it. Where no end group is shown, it is not given here.

Usually inhibition stands for how much of the control response was suppressed.

Description for mouse red blood cells: The blood compatibility of peptides was assessed using mouse red blood cells. The procedure involved obtaining red blood cells by centrifuging mouse blood at 2,000 rpm for 5 min, followed by washing them with PBS three times. The red blood cells were then diluted to a final concentration of 5% (v/v). Then, 2 mg/mL of peptides were added to 1 mL of the red blood cell suspension, and the mixture was incubated at 37°C for 1 h. After incubation, the suspension was centrifuged at 2000 rpm for 5 min, and the supernatant was measured at 540 nm using a microplate reader. The positive control consisted of 0.1% Triton X-100, while PBS served as a negative control. […] The hemolysis percentage was calculated using the following formula: hemolysis (%) = [(ODsample −ODnc)/(ODpc − ODnc)] × 100%.

In the case of `NCCCC[C@H](NC(=O)[C@H](Cc1cnc[nH]1)NC(=O)CN)C(=O)O` [GHK, tripeptide-1, reference compound] (H-Gly-His-Lys-OH), in data set [1], the “peptide detected in the receptor cell” value was approximately 0.5% and the “peptide detected in the skin (skin retention)” value is listed as 2.7%.

Turning to `OO` [H2O2], the “concentration with apparent cytotoxic effect” value in the data set with HaCaT [2] is 1,600 μM. In the data set on HaCaT cells, the LDH leakage entry is “over 37%”. Moreover, the “concentration with obvious cytotoxicity” value with HFF-1 worked out at 800 µM. Besides, in the data set with HaCaT [3], the “ratio of early apoptosis” value is reported as 28%.

Consider `CC(C)(C)C(=O)Oc1ccc(S(=O)(=O)Nc2ccccc2C(=O)NCC(=O)O)cc1` [Sivelestat, Sivelestat sodium salt hydrate, reference compound], for which the inhibition at 250 µM in data set [4] (250 μM of Sivelestat (positive control), read-out: elastase inhibition rate) was approximately 65%.

As to RGDGHK [RGD-GHK], in the data set on mouse red blood cells, the “hemolysis (RBCs lysed)” value is “less than 1%”. Also, in data set [1] (setting [7]), the “peptide detected in the receptor cell” value is “approximately 5%” and the “peptide detected in the skin (skin retention)” value is reported as 5%. The “proteolytic stability against chymotrypsin, compared with GHK” value in the data set on chymotrypsin was “no significant difference in the proteolytic stability”. The elastase inhibition rate entry in [4] is “approximately 25%”.

Turning to RKQRRERGHK [sOtx2-GHK], the elastase inhibition rate in data set [4] is approximately 20%.

As to acetyl hexapeptide-8 [Wrinklend], the “COL-1 expression (immunofluorescence)” value in data set [5] and in data set [6] was “significantly suppressed COL-1 degradation” throughout.

(Values after publication PMC10679740, “Role of peptide–cell surface interactions in cosmetic peptide application” (Frontiers in Pharmacology, 2023).)
